One molecule from article PMC5218480 (PLoS ONE, 2017) can be followed below.

This experiment has as its system MV-4-11 cells. As to the kind of experiment: Gene expression microarray analysis (Affymetrix PrimeView) and GSEA. To be noted: ProbeSet 11728314_at; LIST B. The experiment is classed as cell-based, human. Further details: RFU PODN (11730768_x_at) / Fold change /veh PODN (11730768_x_at) / RFU LINC00158 (11744669_a_at) / Fold change /veh LINC00158 (11744669_a_at) / RFU DUSP10 (11751237_a_at) / Fold change /veh DUSP10 (11751237_a_at) / RFU ID3 (11757404_x_at) / Fold change /veh ID3 (11757404_x_at) / RFU PLEKHG5 (11737974_s_at) / Fold change /veh PLEKHG5 (11737974_s_at) / RFU LRRC4B (11730491_at) / Fold change /veh LRRC4B (11730491_at) / RFU GIMAP4 (11747438_a_at) / Fold change /veh GIMAP4 (11747438_a_at) / RFU KRT8 (11758183_x_at) / Fold change /veh KRT8 (11758183_x_at) / RFU CNN1 (11734310_a_at) / Fold change /veh CNN1 (11734310_a_at) / RFU VPS37D (11726825_at) / Fold change /veh VPS37D (11726825_at) / RFU C10orf10 (11716522_x_at) / Fold change /veh C10orf10 (11716522_x_at) / RFU KIR2DL2 /// KIR2DL4 /// KIR2DL5A /// KIR2DL5B /// KIR2DS1 /// KIR2DS2 /// KIR2DS3 /// KIR2DS4 /// KIR3DL3 /// KIR3DL3 /// KIR3DS1 (11738374_at) / Fold change /veh KIR2DL2 /// KIR2DL4 /// KIR2DL5A /// KIR2DL5B /// KIR2DS1 /// KIR2DS2 /// KIR2DS3 /// KIR2DS4 /// KIR3DL3 /// KIR3DL3 /// KIR3DS1 (11738374_at) / RFU C1QL1 (11718748_at) / Fold change /veh C1QL1 (11718748_at) / RFU TMPRSS4 (11747572_a_at) / Fold change /veh TMPRSS4 (11747572_a_at) / RFU HAMP (11756126_x_at) / Fold change /veh HAMP (11756126_x_at) / RFU RNFT2 (11725882_a_at) / Fold change /veh RNFT2 (11725882_a_at) / RFU NR4A2 (11747474_a_at) / Fold change /veh NR4A2 (11747474_a_at) / RFU ABCC12 (11746883_a_at) / Fold change /veh ABCC12 (11746883_a_at) / RFU TMEM136 (11760407_x_at) / Fold change /veh TMEM136 (11760407_x_at) / RFU CLDN22 /// WWC2 (11732394_at) / Fold change /veh CLDN22 /// WWC2 (11732394_at) / RFU HLA-DPB1 (11760878_x_at) / Fold change /veh HLA-DPB1 (11760878_x_at) / RFU SPINT1 (11716480_a_at) / Fold change /veh SPINT1 (11716480_a_at) / RFU GAP43 (11754022_s_at) / Fold change /veh GAP43 (11754022_s_at) / RFU A4GNT (11735810_at) / Fold change /veh A4GNT (11735810_at) / RFU PRB3 (11715151_x_at) / Fold change /veh PRB3 (11715151_x_at) / RFU TUBB4B (11761932_at) / Fold change /veh TUBB4B (11761932_at) / RFU CAPN14 (11732068_a_at) / Fold change /veh CAPN14 (11732068_a_at) / RFU TMCC2 (11721928_a_at) / Fold change /veh TMCC2 (11721928_a_at) / RFU IRGQ (11745062_a_at) / Fold change /veh IRGQ (11745062_a_at) / RFU FAM174B (11720279_a_at) / Fold change /veh FAM174B (11720279_a_at) / RFU TMPRSS4 (11748680_a_at) / Fold change /veh TMPRSS4 (11748680_a_at) / RFU FAM212B (11763350_a_at) / Fold change /veh FAM212B (11763350_a_at) / RFU PLEKHG5 (11743358_a_at) / Fold change /veh PLEKHG5 (11743358_a_at) / RFU ZSCAN30 (11745921_a_at) / Fold change /veh ZSCAN30 (11745921_a_at) / RFU CMKLR1 (11741424_a_at) / Fold change /veh CMKLR1 (11741424_a_at) / RFU LOC101060620 /// MAPK8IP1 (11723275_at) / Fold change /veh LOC101060620 /// MAPK8IP1 (11723275_at) / RFU SPTSSB (11747773_x_at) / Fold change /veh SPTSSB (11747773_x_at) / RFU PRSS12 (11739890_at) / Fold change /veh PRSS12 (11739890_at) / RFU BIN1 (11741810_x_at) / Fold change /veh BIN1 (11741810_x_at) / RFU WNT11 (11732464_a_at) / Fold change /veh WNT11 (11732464_a_at) / RFU C10orf10 (11716521_a_at) / Fold change /veh C10orf10 (11716521_a_at) / RFU C5orf56 (11738089_at) / Fold change /veh C5orf56 (11738089_at) / RFU CYB561 (11721691_x_at) / Fold change /veh CYB561 (11721691_x_at) / RFU ANKRD19P (11752326_a_at) / Fold change /veh ANKRD19P (11752326_a_at) / RFU OR2T12 /// OR2T33 /// OR2T8 (11738714_s_at) / Fold change /veh OR2T12 /// OR2T33 /// OR2T8 (11738714_s_at) / RFU VCAN (11748164_a_at) / Fold change /veh VCAN (11748164_a_at) / RFU JSRP1 (11732532_at) / Fold change /veh JSRP1 (11732532_at) / RFU KRTAP10-11 (11738290_x_at) / Fold change /veh KRTAP10-11 (11738290_x_at) / RFU MYO3A (11730013_a_at) / Fold change /veh MYO3A (11730013_a_at) / RFU EBF3 (11725865_a_at) / Fold change /veh EBF3 (11725865_a_at) / RFU CAMK2N1 (11719241_x_at) / Fold change /veh CAMK2N1 (11719241_x_at) / RFU C5orf56 (11738088_a_at) / Fold change /veh C5orf56 (11738088_a_at) / RFU OLFML3 (11715873_a_at) / Fold change /veh OLFML3 (11715873_a_at) / RFU LOC100653217 /// NTM (11731650_a_at) / Fold change /veh LOC100653217 /// NTM (11731650_a_at) / RFU MAPK11 (11762145_a_at) / Fold change /veh MAPK11 (11762145_a_at) / RFU FIZ1 (11724087_x_at) / Fold change /veh FIZ1 (11724087_x_at) / RFU OASL (11726364_x_at) / Fold change /veh OASL (11726364_x_at) / RFU SOX15 (11748057_x_at) / Fold change /veh SOX15 (11748057_x_at) / RFU CD79A (11719716_a_at) / Fold change /veh CD79A (11719716_a_at) / RFU HIST1H1D (11736915_at) / Fold change /veh HIST1H1D (11736915_at) / RFU CASKIN2 (11723855_a_at) / Fold change /veh CASKIN2 (11723855_a_at) / RFU LOC730098 (11760151_x_at) / Fold change /veh LOC730098 (11760151_x_at) / RFU OR4N2 (11742367_at) / Fold change /veh OR4N2 (11742367_at) / RFU PRRT2 (11749266_a_at) / Fold change /veh PRRT2 (11749266_a_at) / RFU SNX32 (11753110_a_at) / Fold change /veh SNX32 (11753110_a_at) / RFU CDHR5 (11726645_a_at) / Fold change /veh CDHR5 (11726645_a_at) / RFU RCAN1 (11760418_a_at) / Fold change /veh RCAN1 (11760418_a_at) / RFU FAM167A (11723789_a_at) / Fold change /veh FAM167A (11723789_a_at) / RFU FAM26E (11764081_at) / Fold change /veh FAM26E (11764081_at) / RFU ISYNA1 (11749810_s_at) / Fold change /veh ISYNA1 (11749810_s_at) / RFU ACY1 (11761880_at) / Fold change /veh ACY1 (11761880_at) / RFU 11764098_at / Fold change /veh 11764098_at / RFU SAMD14 (11745864_x_at) / Fold change /veh SAMD14 (11745864_x_at) / RFU NPB (11741838_a_at) / Fold change /veh NPB (11741838_a_at) / RFU TMPRSS6 (11731388_a_at) / Fold change /veh TMPRSS6 (11731388_a_at) / RFU KRTAP10-2 (11738614_at) / Fold change /veh KRTAP10-2 (11738614_at) / RFU ARHGAP8 /// PRR5-ARHGAP8 (11727945_x_at) / Fold change /veh ARHGAP8 /// PRR5-ARHGAP8 (11727945_x_at) / RFU KRTAP5-7 /// NADSYN1 (11734609_at) / Fold change /veh KRTAP5-7 /// NADSYN1 (11734609_at) / RFU RASL12 (11751679_a_at) / Fold change /veh RASL12 (11751679_a_at) / RFU CDKN2B (11736163_a_at) / Fold change /veh CDKN2B (11736163_a_at) / RFU PRF1 (11729649_at) / Fold change /veh PRF1 (11729649_at) / RFU, ZNF638 /// ZNF638-IT1 / Fold change vs veh, ZNF638 /// ZNF638-IT1 / RFU, PANK3 / Fold change vs veh, PANK3 / RFU, SH3YL1 / Fold change vs veh, SH3YL1 / RFU, ZEB2 / Fold change vs veh, ZEB2 / RFU, NRIP1 / Fold change vs veh, NRIP1 / RFU, PTTG1IP / Fold change vs veh, PTTG1IP / RFU, CAPN2 / Fold change vs veh, CAPN2 / RFU, MED14 / Fold change vs veh, MED14 / RFU, SNORA58 / Fold change vs veh, SNORA58 / RFU, C1orf63 / Fold change vs veh, C1orf63 / RFU, LRRFIP1 / Fold change vs veh, LRRFIP1 / RFU, NDUFAF7 / Fold change vs veh, NDUFAF7 / RFU, SLC12A2 / Fold change vs veh, SLC12A2 / RFU, IBTK / Fold change vs veh, IBTK / RFU, ESF1 / Fold change vs veh, ESF1 / Fold change vs veh, TMEM50B / RFU, TAOK1 / Fold change vs veh, TAOK1 / RFU, ACBD3 / Fold change vs veh, ACBD3 / RFU, TMA16 / Fold change vs veh, TMA16 / RFU, RWDD3 / Fold change vs veh, RWDD3 / RFU, BCAT1 / Fold change vs veh, BCAT1 / RFU, EDEM3 / Fold change vs veh, EDEM3 / RFU, TMEM33 / Fold change vs veh, TMEM33 / RFU, WDR75 / Fold change vs veh, WDR75 / RFU, AHCTF1 / Fold change vs veh, AHCTF1 / RFU, TFRC / Fold change vs veh, TFRC / RFU, ZDHHC17 / Fold change vs veh, ZDHHC17 / RFU, NOM1 / Fold change vs veh, NOM1 / RFU, ARL8B / Fold change vs veh, ARL8B / RFU, ZBTB11 / Fold change vs veh, ZBTB11 / RFU, TAMM41 / Fold change vs veh, TAMM41 / RFU, KIAA1704 /// LOC100996395 / Fold change vs veh, KIAA1704 /// LOC100996395 / RFU, ING1 / Fold change vs veh, ING1 / RFU, TRMT61B / Fold change vs veh, TRMT61B / RFU, FUBP3 / Fold change vs veh, FUBP3 / RFU, TP53 / Fold change vs veh, TP53 / RFU, TNKS2 / Fold change vs veh, TNKS2 / RFU, ZFP14 / Fold change vs veh, ZFP14 / RFU, ACTR2 / Fold change vs veh, ACTR2 / RFU, PPP3R1 / Fold change vs veh, PPP3R1 / RFU, PIK3R1 / Fold change vs veh, PIK3R1 / RFU, HNRNPA1 / Fold change vs veh, HNRNPA1 / RFU, RNF170 / Fold change vs veh, RNF170 / RFU, ZNF28 / Fold change vs veh, ZNF28 / RFU, RNGTT / Fold change vs veh, RNGTT / RFU, OGT / Fold change vs veh, OGT / RFU, BRD1 / Fold change vs veh, BRD1 / RFU, MARS / Fold change vs veh, MARS / RFU, ZNF655 / Fold change vs veh, ZNF655 / RFU, FAHD1 / Fold change vs veh, FAHD1 / RFU, BDP1 / Fold change vs veh, BDP1 / RFU, LRRCC1 / Fold change vs veh, LRRCC1 / RFU, ARID1A / Fold change vs veh, ARID1A / RFU, ZNF146 / Fold change vs veh, ZNF146 / RFU, ZNF330 / Fold change vs veh, ZNF330 / RFU, GPN3 / Fold change vs veh, GPN3 / RFU, C9orf123 / Fold change vs veh, C9orf123 / RFU, N4BP2L2 / Fold change vs veh, N4BP2L2 / RFU, ARFIP1 / Fold change vs veh, ARFIP1 / RFU, FAM179B / Fold change vs veh, FAM179B / RFU, BCL10 / Fold change vs veh, BCL10 / RFU, UHRF1BP1L / Fold change vs veh, UHRF1BP1L / RFU, BET1 / Fold change vs veh, BET1 / RFU, CNOT2 / Fold change vs veh, CNOT2 / RFU, ZNF268 / Fold change vs veh, ZNF268 / Fold change vs veh, ZNF507 / RFU, DGCR2 / Fold change vs veh, DGCR2 / RFU, WDSUB1 / Fold change vs veh, WDSUB1 / Fold change vs veh, HSP90B1 /// MIR3652 / RFU, ADSS / Fold change vs veh, ADSS / RFU, GK / Fold change vs veh, GK / RFU, ZNF148 / Fold change vs veh, ZNF148 / RFU, TAF9 / Fold change vs veh, TAF9 / RFU, SLC1A5 / Fold change vs veh, SLC1A5 / RFU, SLMO2 / Fold change vs veh, SLMO2 / RFU, ABCC4 / Fold change vs veh, ABCC4 / RFU, LOC101060439 /// RAP1B / Fold change vs veh, LOC101060439 /// RAP1B / RFU, RFX7 / Fold change vs veh, RFX7 / RFU, GTPBP10 / Fold change vs veh, GTPBP10 / RFU, CNEP1R1 / Fold change vs veh, CNEP1R1 / RFU, BIVM-ERCC5 /// ERCC5 / Fold change vs veh, BIVM-ERCC5 /// ERCC5 / RFU, ILF3 / Fold change vs veh, ILF3 / RFU 11762660_at / Fold change /veh 11762660_at / RFU VCAN (11757783_s_at) / Fold change /veh VCAN (11757783_s_at) / RFU DDX43 (11728927_at) / Fold change /veh DDX43 (11728927_at) / RFU KRT8 (11758188_x_at) / Fold change /veh KRT8 (11758188_x_at) / RFU NKD1 (11759106_at) / Fold change /veh NKD1 (11759106_at) / RFU SRD5A1 (11742802_a_at) / Fold change /veh SRD5A1 (11742802_a_at) / RFU TPSAB1 /// TPSB2 (11721975_s_at) / Fold change /veh TPSAB1 /// TPSB2 (11721975_s_at) / RFU GSTM3 (11746129_a_at) / Fold change /veh GSTM3 (11746129_a_at) / RFU IL23R (11737362_x_at) / Fold change /veh IL23R (11737362_x_at) / RFU TMEM51 (11727254_a_at) / Fold change /veh TMEM51 (11727254_a_at) / RFU PIWIL2 (11732686_x_at) / Fold change /veh PIWIL2 (11732686_x_at) / RFU ORM1 (11744905_x_at) / Fold change /veh ORM1 (11744905_x_at) / RFU CCDC152 (11743942_at) / Fold change /veh CCDC152 (11743942_at) / RFU ECM1 (11717891_a_at) / Fold change /veh ECM1 (11717891_a_at) / RFU IL23R (11748794_a_at) / Fold change /veh IL23R (11748794_a_at) / RFU TNFAIP8L3 (11732012_x_at) / Fold change /veh TNFAIP8L3 (11732012_x_at) / RFU MBOAT4 (11741988_at) / Fold change /veh MBOAT4 (11741988_at) / RFU 11764193_at / Fold change /veh 11764193_at / RFU TMEM53 (11763286_at) / Fold change /veh TMEM53 (11763286_at) / RFU MAGEB2 (11727129_at) / Fold change /veh MAGEB2 (11727129_at) / RFU TMEM200A (11744735_a_at) / Fold change /veh TMEM200A (11744735_a_at) / RFU CCDC152 (11751479_a_at) / Fold change /veh CCDC152 (11751479_a_at) / RFU FAM211A (11726209_a_at) / Fold change /veh FAM211A (11726209_a_at) / RFU RGS16 (11746705_a_at) / Fold change /veh RGS16 (11746705_a_at) / RFU VCAN (11755009_s_at) / Fold change /veh VCAN (11755009_s_at) / RFU RHOB (11743442_s_at) / Fold change /veh RHOB (11743442_s_at) / RFU RGS16 (11720943_a_at) / Fold change /veh RGS16 (11720943_a_at) / RFU RGS16 (11720944_at) / Fold change /veh RGS16 (11720944_at) / RFU, VPS4B / Fold change vs veh, VPS4B / RFU, CREB1 / Fold change vs veh, CREB1 / RFU, DNAJC13 / Fold change vs veh, DNAJC13 / RFU, GNAQ / Fold change vs veh, GNAQ / RFU, CDK5R1 / Fold change vs veh, CDK5R1 / RFU, ZRANB3 / Fold change vs veh, ZRANB3 / RFU, CUL4A / Fold change vs veh, CUL4A / RFU, CCNY / Fold change vs veh, CCNY / RFU, UFL1 / Fold change vs veh, UFL1 / RFU, COG3 / Fold change vs veh, COG3 / RFU, DIAPH2 / Fold change vs veh, DIAPH2 / RFU, SKA2 / Fold change vs veh, SKA2 / RFU, AFF3 / Fold change vs veh, AFF3 / RFU, LMF1 / Fold change vs veh, LMF1 / RFU, IPO11 / Fold change vs veh, IPO11 / RFU, DFFB / Fold change vs veh, DFFB / RFU, FOXP1 / Fold change vs veh, FOXP1 / RFU, CARD8 / Fold change vs veh, CARD8 / RFU, STRN3 / Fold change vs veh, STRN3 / RFU, ADK / Fold change vs veh, ADK / RFU, RASSF2 / Fold change vs veh, RASSF2 / RFU, WIPF1 / Fold change vs veh, WIPF1 / RFU, LARP1B / Fold change vs veh, LARP1B / RFU, RASA1 / Fold change vs veh, RASA1 / RFU, RB1 / Fold change vs veh, RB1 / RFU, PPFIA1 / Fold change vs veh, PPFIA1 / RFU, MAT2A / Fold change vs veh, MAT2A / RFU, CCT5 / Fold change vs veh, CCT5 / RFU, WDR92 / Fold change vs veh, WDR92 / RFU, CUX1 / Fold change vs veh, CUX1 / RFU, TTC7A / Fold change vs veh, TTC7A / RFU, TMEM135 / Fold change vs veh, TMEM135 / RFU, DEPTOR / Fold change vs veh, DEPTOR / RFU, CPM / Fold change vs veh, CPM / RFU, DNAJB6 / Fold change vs veh, DNAJB6 / RFU, CACNA2D3 / Fold change vs veh, CACNA2D3 / RFU, DTX4 / Fold change vs veh, DTX4 / RFU, TFCP2 / Fold change vs veh, TFCP2 / RFU, GMCL1 /// GMCL1P1 / Fold change vs veh, GMCL1 /// GMCL1P1 / RFU, AEBP2 / Fold change vs veh, AEBP2 / RFU, SNHG1 /// SNORD22 /// SNORD25 /// SNORD26 /// SNORD27 /// SNORD28 /// SNORD29 /// SNORD31 / Fold change vs veh, SNHG1 /// SNORD22 /// SNORD25 /// SNORD26 /// SNORD27 /// SNORD28 /// SNORD29 /// SNORD31 / Fold change (Aza/veh), C12orf56 (ProbeSet 11735607_a_at) / Fold change (ACY-1035/veh), C12orf56 (ProbeSet 11735607_a_at) / Fold change (Aza/veh), FGFR1OP (ProbeSet 11751329_s_at) / Fold change (ACY-1035/veh), FGFR1OP (ProbeSet 11751329_s_at) / Fold change (Aza/veh), VPS36 (ProbeSet 11739960_a_at) / Fold change (ACY-1035/veh), VPS36 (ProbeSet 11739960_a_at) / RFU SYPL1 (11715823_x_at) / Fold change /veh SYPL1 (11715823_x_at) / RFU IGFBP7 (11715501_s_at) / Fold change /veh IGFBP7 (11715501_s_at) / RFU REEP3 (11722064_at) / Fold change /veh REEP3 (11722064_at) / RFU IGLL1 (11728026_x_at) / Fold change /veh IGLL1 (11728026_x_at): dose or concentration left out as unconfirmed.

For the molecule `Nc1ccc(-c2cccs2)cc1NC(=O)c1ccc2c(c1)cc(C1CC1)n2CCN1CCOCC1` [ACY-1035], the “RFU, ZNF148” value is 188.07 RFU.
